In patent US8481042B2, “Conjugates of pyrrolo[1,4]benzodiazepine dimers as anticancer agents” (priority 2009, dated 2013):

Key:
Format in all cases: cell-based
[1] = tested on: HCT116 cells; assay: Inhibition of the proliferation of HCT116 cells by compounds of formula IA (14C-thymidine pulse at 96 h); details: Homo sapiens, HCT-116; HCT116, 3 days culture, 14C-thymidine incorporation at 96 h
Method: (§1) Evaluation of the Inhibition of the Proliferation of the MDA-MB-231, MDA-A1 and HCT116 Cell Lines by the Compounds of Formula IA with ZbRb=−OMe and Y═Y′=−OMe
(§2) The MDA-MB-231, MDA-A1 or HCT116 cells in their exponential growth phase are trypsinized and resuspended in their respective culture medium (DMEM/F12 Gibco #21331, 10% FCS Gibco #10500-056, […] Gibco #25030 for the MDA cells; DMEM Gibco #11960, 10% FCS Gibco #10500-056, 2 mM glutamine Gibco #25030 for the HCT116 cells). The cell suspension is seeded in Cytostar 96-well culture plates (GE Healthcare Europe, #RPNQ0163) in the complete culture medium containing serum at a density of 5000 cells/well (MDA-MB-231, MDA-A1, HCT116). After incubation for 4 hours, successive dilutions of the tomaymycin dimers are added to the wells in triplicate for each concentration. The cells are cultured for 3 days at 37° C. under an atmosphere containing 5% CO2 in the presence of the cytotoxic agents. On the 4th day, 10 μl of a ^14C-thymidine solution (0.1 μCi/well, Perkin Elmer #NEC56825000) are added to each well. The incorporation of ^14C-thymidine is measured 96 hours after the start of the experiment using a MicroBeta radioactivity counter (Perkin Elmer). The data are expressed in the form of a % of survival by determining the ratio between the count obtained with the cells treated with the cytotoxic agent and the count obtained with the cells of the control wells (treated with the culture medium alone).

[2] = tested on: MDA-A1 cells; assay: Inhibition of the proliferation of MDA-A1 cells by compounds of formula IA (14C-thymidine pulse at 96 h); details: MDA-A1, 3 days culture, 14C-thymidine incorporation at 96 h
Method: as §1, §2

[3] = tested on: MDA-MB-231 cells; assay: Inhibition of the proliferation of MDA-MB-231 cells by compounds of formula IA (14C-thymidine pulse at 96 h); details: Homo sapiens; MDA-MB-231, 3 days culture, 14C-thymidine incorporation at 96 h; read-out: Inhibition of the proliferation (14C-thymidine pulse at 96 h) IC50 MDA-MB231
Method: as §1, §2

Row | SMILES | IC50 [1] [nM] | IC50 [2] [nM] | IC50 [3] [nM]
1 | C/C=C1\C[C@H]2C=Nc3cc(OCc4cc(OCCN(C)CC(C)(C)SCC(=O)NCCOCCOCCOCCOCCC(=O)OC)cc(COc5cc6c(cc5OC)C(=O)N5C/C(=C/C)C[C@H]5C=N6)n4)c(OC)cc3C(=O)N2C1 | 0.03 | 1.99 | 0.009
2 | C/C=C1\C[C@H]2C=Nc3cc(OCc4cc(OCCN(C)CC(C)(C)SCC(=O)N(C)CCOCCOCCOCCOCCC(=O)OC)cc(COc5cc6c(cc5OC)C(=O)N5C/C(=C/C)C[C@H]5C=N6)n4)c(OC)cc3C(=O)N2C1 | 0.12 | 2.26 | 0.07
3 | C/C=C1\C[C@H]2C=Nc3cc(OCc4cc(COc5cc6c(cc5OC)C(=O)N5C/C(=C/C)C[C@H]5C=N6)cc(C(C)(C)SCC(=O)NCCOCCOCCOCCOCCC(=O)OC)c4)c(OC)cc3C(=O)N2C1 | 0.127 | > 10 | 0.084
4 | C/C=C1\C[C@H]2C=Nc3cc(OCc4cc(OCCN5CCN(C(=O)CCC(C)(C)SCC(=O)NCCOCCOCCOCCOC(=O)OC)CC5)cc(COc5cc6c(cc5OC)C(=O)N5C/C(=C/C)C[C@H]5C=N6)n4)c(OC)cc3C(=O)N2C1 | 1.25 | > 10 | 0.45
